In patent US20260242416A1, “ANTIMICROBIAL PEPTIDES” (priority 2023, published 2026):
Converted amounts (≈) assume the structure as drawn. “Also recorded” adds a separate entry of the source. Where a SMILES comes first, the peptide text is derived from it.

Tests used:
[1] = system: Escherichia coli ATCC 25922; experiment: Antimicrobial susceptibility testing (MIC/MBC), Example 1; assay type: cell-based; conditions: Table 3; footnote: wild-type Escherichia coli ATCC 29522; minimum of three independent experiments
Protocol: Twenty-one putative AMP sequences identified using the rAMPage pipeline were validated through a minimum of three AST experiments performed independently on separate days. In these tests, the AMP activity was assessed using two metrics: minimum inhibitory concentration and minimum bactericidal concentration (MIC and MBC, respectively). MIC and MBC values were determined using procedures outlined by the Clinical and Laboratory Standards Institute (CLSI), with the recommended adaptations for the testing of cationic AMPs described previously. “Wild-type” strains of Escherichia coli (E. coli 25922) and Staphylococcus aureus (S. aureus 29213) were purchased from the American Type Culture Collection (ATCC; Manassas, VA, USA) and were used for screening of antimicrobial activity. Briefly, putative AMPs were synthesized by Genscript (Piscataway, NJ, USA) and received in lyophilized format. These peptides were suspended using ultrapure water (Life Technologies, Grand Island, NY, USA; Invitrogen cat #10977-015), and an 11 μL two-fold serial dilution of 1280 to 2.5 μg/mL was prepared in duplicate rows in a 96-well microtiter plate, before being combined with 100 μL standardized bacterial inoculum yielding a final duplicate testing range of 128 to 0.25 μg/mL. The bacterial inoculum was prepared using colonies isolated on non-selective agar and combined with Mueller Hinton Broth. This suspension was measured and adjusted to achieve an optical density of 0.08-0.1, equivalent to a 0.5 McFarland standard (1-2×10^8 cfu/mL). The inoculum was then diluted to a target concentration of 5±3×10^5 cfu/mL; total viable counts from the final inoculum were routinely performed to confirm the target bacterial density was achieved. […] The MIC and adjacent wells were plated onto non-selective agar; the concentration in which killed 99.9% of the inoculum following additional overnight incubation was determined to be the MBC.

[2] = system: E. coli ATCC 25922, Salmonella Enteritidis, S. aureus ATCC 29213; experiment: Broth microdilution, panel result (at least one / all strains), Example 2; assay type: cell-based; parameters: key to inhibitory activity (asterisk): *Indicates inhibitory activity; conditions: Table 14; against at least one of E. coli ATCC 25922, Salmonella Enteritidis, S. aureus ATCC 29213
Method in brief: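 CLSI broth microdilution adapted for cationic peptides, in MHB with a final inoculum of 2-8×10^5 cfu/mL in polypropylene plates. Peptides were serially diluted from 128 down to 0.5 μg/mL and incubated 20-24 h at 37° C. MIC is the lowest concentration with no visible growth.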

[3] = system: Staphylococcus aureus ATCC 29213; assay type: cell-based; conditions: Table 3; wild-type Staphylococcus aureus ATCC 29213; minimum of three independent experiments
Protocol: Twenty-one putative AMP sequences identified using the rAMPage pipeline were validated through a minimum of three AST experiments performed independently on separate days. In these tests, the AMP activity was assessed using two metrics: minimum inhibitory concentration and minimum bactericidal concentration (MIC and MBC, respectively). MIC and MBC values were determined using procedures outlined by the Clinical and Laboratory Standards Institute (CLSI), with the recommended adaptations for the testing of cationic AMPs described previously. “Wild-type” strains of Escherichia coli (E. coli 25922) and Staphylococcus aureus (S. aureus 29213) were purchased from the American Type Culture Collection (ATCC; Manassas, VA, USA) and were used for screening of antimicrobial activity. Briefly, putative AMPs were synthesized by Genscript (Piscataway, NJ, USA) and received in lyophilized format. […] This suspension was measured and adjusted to achieve an optical density of 0.08-0.1, equivalent to a 0.5 McFarland standard (1-2×10^8 cfu/mL). […]

E. coli ATCC 25922 = assay type: cell-based, Escherichia coli; conditions: for MIC (ug/mL) E. coli: Table 14, first value of the cell, three independent experiments, highest concentration tested 128
Method in brief: (§1)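 MIC taken as lowest peptide level showing no visible growth after 20-24 h at 37° C. Twofold series 128-0.5 μg/mL in Mueller-Hinton broth, polypropylene plates, final inoculum 2-8×10^5 cfu/mL, per CLSI with cationic-peptide adaptations.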

[4] = system: Salmonella enterica serovar Enteritidis (human clinical isolate); assay type: cell-based; conditions: for MIC (ug/mL) S. Enteritidis: Table 14, second value of the cell, three independent experiments, highest concentration tested 128
Method in brief: as §1

S. aureus ATCC 29213 = assay type: cell-based, Staphylococcus aureus; conditions: Table 14, third value of the cell; three independent experiments; highest concentration tested 128
Method in brief: as §1

[5] = alamarBlue cell viability assay (cytotoxicity); assay type: cell-based, human; conditions: human, HEK293 cells, at 128 μg/mL
Protocol: (§2) The human embryonic kidney cell line HEK293 and the corresponding growth media and supplements were purchased from the ATCC. The cells were maintained in Eagle's Minimum Essential Medium (EMEM) supplemented with 10% fetal bovine serum (FBS) and 1% Penicillin-Streptomycin solution and grown in a 5% CO2 incubator at 37° C. […] Cells were incubated overnight to allow them to adhere. […] TX-100 was diluted to 2% in UltraPure deionized water and added as a positive control. Complete growth medium was added to the peptides and TX-100 containing wells. Spent growth medium of wells with adhered cells was replaced with the contents of wells containing serially diluted peptides or TX-100. Cells were incubated for four hours at 37° C. in 5% CO2 incubator. Growth medium containing peptides or TX-100 was replaced with fresh growth medium containing 10% (v/v) alamarBlue (Bio-Rad Laboratories, Hercules, CA, USA) and incubated for 20 h. Fluorescence was measured at excitation of 540 nm and emission of 590 nm in a Cytation 5 plate reader (Agilent BioTek, Winooski, VT, USA) and results recorded and analyzed with Gen5 software (Agilent BioTek, Winooski, VT, USA). The average fluorescence reads of TX-100 and growth media only wells were used to calculate 0% and 100% cell viability, respectively. The percentage of viable cells at each peptide concentration was determined by Formula 1: […]

HEK293 cells = experiment: alamarBlue cell viability assay (cytotoxicity); assay type: cell-based, human; conditions: concentrations up to 128 μg/mL
Protocol: as §2

porcine red blood cells = experiment: Hemolysis assay (HC50), Example 2; conditions: up to 128 μg/mL
Protocol: Peptides were evaluated for toxicity using three independent hemolysis experiments. Whole blood from healthy donor pigs, supplemented with Na Citrate, was purchased from Lampire Biological Laboratories (Pipersville, PA, USA). Red blood cells (RBCs) were washed and isolated by three centrifugation cycles using Roswell Park Memorial Institute medium (RPMI; Thermo-Fisher Scientific) to create a 1% (v/v) RBC solution. […] Following a minimum 30 min incubation at 37° C., plates were centrifuged and % volume from each supernatant was transferred to a new 96-well plate. The absorbance of these wells was measured at 415 nm. To quantify hemolytic activity and determine the AMP concentration that lyses 50% of the RBCs (HC50), absorbance reading from wells containing RBCs treated with 11 μL of a 2% TritonX-100 detergent solution (TX-100) or RPMI (AMP solvent-only) were used to define 100% and 0% hemolysis, respectively. All centrifugation steps were performed at 500× g for five minutes in an Allegra-6R centrifuge (Beckman Coulter, Brea, CA, USA).

| SMILES | MIC* (μg/mL) E. coli [1] [µg⁻¹ mL⁻¹] | inhibitory activity (asterisk) [2] | MIC* (μg/mL) S. aureus [3] [µg/mL] | MIC against E. coli (E. coli ATCC 25922) [µg/mL] | MIC (ug/mL) E. coli (E. coli ATCC 25922) [µg/mL] | MIC (ug/mL) S. Enteritidis [4] [µg/mL] | MIC (ug/mL) S. aureus (S. aureus ATCC 29213) [µg/mL] | viability at 4 h, 128 µg/mL [5] [%] | cytotoxicity (HEK293 cells) | hemolytic activity (porcine red blood cells) | MIC against Salmonella Enteritidis [4] [µg/mL] |
| --- | --- | --- | --- | --- | --- | --- | --- | --- | --- | --- | --- |
| CC[C@H](C)[C@H](NC(=O)CNC(=O)[C@H](C)NC(=O)[C@@H](NC(=O)[C@H](CC(N)=O)NC(=O)[C@H](CCCCN)NC(=O)[C@H](C)NC(=O)[C@H](C)NC(=O)CNC(=O)[C@H](CCCCN)NC(=O)[C@@H](NC(=O)[C@@H](NC(=O)[C@H](CC(=O)O)NC(=O)[C@H](CC(C)C)NC(=O)[C@H](CC(C)C)NC(=O)[C@H](CC(C)C)NC(=O)CN)[C@@H](C)O)C(C)C)C(C)C)C(=O)N[C@@H](CC(C)C)C(=O)N[C@@H](CC(C)C)C(=O)N[C@@H](CC(N)=O)C(=O)N[C@@H](CCCCN)C(=O)N[C@@H](CC(C)C)C(=O)N[C@@H](CCCCN)C(=O)N[C@@H](CS)C(=O)N[C@@H](CCCCN)C(=O)N[C@H](C(=O)N[C@H](C(=O)NCC(=O)N[C@@H](CC(=O)O)C(=O)N[C@@H](CS)C(=O)O)[C@@H](C)O)C(C)C [PeNi10] (H-GLLLDTVKGAAKNVAGILLNKLKCKVTGDC-OH; N-terminus and C-terminus assumed) | 8 | 1086.* GLLLDTVKGAAKNVAGILLNKLKCKVTGDC |  |  |  |  |  |  |  |  |  |
| CC[C@H](C)[C@H](NC(=O)CN)C(=O)N[C@@H](CC(C)C)C(=O)N[C@H](C(=O)N[C@@H](CC(=O)O)C(=O)N[C@H](C(=O)N[C@@H](CC(C)C)C(=O)N[C@@H](CCCCN)C(=O)NCC(=O)N[C@@H](C)C(=O)N[C@@H](C)C(=O)N[C@@H](CCCCN)C(=O)N[C@@H](CC(N)=O)C(=O)N[C@H](C(=O)N[C@@H](C)C(=O)NCC(=O)N[C@H](C(=O)N[C@@H](CC(C)C)C(=O)N[C@@H](CC(C)C)C(=O)N[C@@H](CC(=O)O)C(=O)N[C@@H](CCCCN)C(=O)N[C@@H](CC(C)C)C(=O)N[C@@H](CCCCN)C(=O)N[C@@H](CS)C(=O)N[C@@H](CCCCN)C(=O)N[C@H](C(=O)N[C@H](C(=O)NCC(=O)NCC(=O)N[C@@H](CS)C(=O)O)[C@@H](C)O)[C@@H](C)CC)C(C)C)C(C)C)[C@@H](C)O)[C@@H](C)O [PeNi11] (H-GILTDTLKGAAKNVAGVLLDKLKCKITGGC-OH; N-terminus and C-terminus assumed) | 8 to 16 | 1087.* GILTDTLKGAAKNVAGVLLDKLKCKITGGC |  |  |  |  |  |  |  |  |  |
| CC[C@H](C)[C@H](NC(=O)[C@H](CCCCN)NC(=O)[C@H](CC(=O)O)NC(=O)[C@H](CC(C)C)NC(=O)[C@@H](NC(=O)CNC(=O)[C@@H](NC(=O)[C@H](CO)NC(=O)[C@H](Cc1ccccc1)NC(=O)[C@H](CC(N)=O)NC(=O)[C@H](CCCCN)NC(=O)[C@@H](NC(=O)CNC(=O)[C@H](CCC(=O)O)NC(=O)[C@H](CCCCN)NC(=O)[C@@H](NC(=O)[C@@H](NC(=O)[C@@H](NC(=O)[C@H](Cc1c[nH]c2ccccc12)NC(=O)[C@H](CC(C)C)NC(=O)CN)[C@@H](C)O)[C@@H](C)O)[C@@H](C)CC)C(C)C)C(C)C)C(C)C)C(=O)N[C@@H](CCCNC(=N)N)C(=O)N[C@@H](CS)C(=O)N[C@@H](CCCCN)C(=O)N[C@H](C(=O)N[C@H](C(=O)NCC(=O)NCC(=O)N[C@@H](CS)C(=O)O)[C@@H](C)O)[C@@H](C)CC [PeNi14] (H-GLWTTIKEGVKNFSVGVLDKIRCKITGGC-OH; N-terminus and C-terminus assumed) | 4 to 8 | 15.* GLWTTIKEGVKNFSVGVLDKIRCKITGGC |  |  |  |  |  |  |  |  |  |
| CC[C@H](C)[C@H](NC(=O)[C@@H](N)CCCCN)C(=O)N[C@@H](CCCCN)C(=O)N[C@H](C(=O)N1CCC[C@H]1C(=O)N[C@@H](Cc1c[nH]c2ccccc12)C(=O)NCC(=O)N[C@@H](CCCCN)C(=O)N[C@H](C(=O)N[C@@H](CCCCN)C(=O)N[C@@H](CC(=O)O)C(=O)N[C@@H](Cc1ccccc1)C(=O)N[C@@H](CC(C)C)C(=O)N[C@H](C(=O)NCC(=O)NCC(=O)N[C@@H](CCSC)C(=O)N[C@@H](CCCCN)C(=O)N[C@@H](C)C(=O)N[C@H](C(=O)NCC(=O)N[C@@H](CCCCN)C(=O)N[C@@H](CCCCN)C(=O)O)C(C)C)C(C)C)C(C)C)[C@@H](C)CC [TeBi1] (H-KIKIPWGKVKDFLVGGMKAVGKK-OH) |  |  | 2 to 8 | 1 to 2 | 1 to 2 | 4 to 8 | 4 to 8 | 40 | low or no cytotoxicity at lower concentrations; also recorded: high levels of cytotoxicity at concentrations higher than their MICs | not hemolytic at the concentrations tested |  |
| CC(C)C[C@H](NC(=O)[C@H](CCCCN)NC(=O)[C@H](CCC(=O)O)NC(=O)[C@H](CC(C)C)NC(=O)[C@H](CCCNC(=N)N)NC(=O)[C@@H](NC(=O)[C@H](Cc1ccc(O)cc1)NC(=O)[C@H](CC(N)=O)NC(=O)[C@H](CCCCN)NC(=O)[C@H](CCCCN)NC(=O)[C@H](CC(N)=O)NC(=O)[C@@H](NC(=O)[C@H](CC(C)C)NC(=O)[C@H](CCCCN)NC(=O)[C@H](CCCCN)NC(=O)[C@@H](NC(=O)[C@H](CO)NC(=O)[C@H](CCCCN)NC(=O)[C@H](CO)NC(=O)[C@H](CC(C)C)NC(=O)[C@H](Cc1c[nH]c2ccccc12)NC(=O)[C@@H](N)CO)C(C)C)C(C)C)[C@@H](C)O)C(=O)N[C@@H](C)C(=O)N[C@@H](CCCCN)C(=O)N[C@@H](CCCCN)C(=O)N[C@@H](CCCCN)C(=O)N[C@@H](CC(C)C)C(=O)N[C@@H](Cc1ccccc1)C(=O)N[C@@H](CC(N)=O)C(=O)N[C@@H](CCC(=O)O)C(=O)O [TeRu4] (H-SWLSKSVKKLVNKKNYTRLEKLAKKKLFNE-OH) |  |  | >128 |  | 1 (≈ 0.276 µM) | 2 to 4 | > 128 |  | not to be toxic to HEK293 cells at any of the concentrations tested; also recorded: not toxic against either porcine erythrocytes or HEK293 cells | not hemolytic at the concentrations tested; also recorded: not toxic against either porcine erythrocytes or HEK293 cells | 2 to 4 |
